According to patent US20090023186A1, “USE OF VALPROIC ACID FOR ENHANCING PRODUCTION OF RECOMBINANT PROTEINS IN MAMMALIAN CELLS” (EXCELLGENE SA, priority 2007, published 2009):

Tested on: CHO DG44 cells
Assay: Multiple VPA additions, IgG batch titer by ELISA (Example 3)
Type: cell-based, Chinese Hamster
Conditions: day 10 after transfection
Description: 10 million suspension-adapted HEK293E cells were resuspended in 0.5 ml of Ex-Cell 293 HEK 293 serum-free medium with 4 mmol/l L-glutamine (Cat. No. 14571C-[…]; Lot No. 6A0093; SAFC Biosciences, Lenexa, Kans., USA, “Ex-Cell” medium; note: “Ex-Cell” medium-as used herein-refers to a medium comprising 4 mmol/l L-glutamine) in a 50-ml filter tube each (TPP AG, Trasadingen, Switzerland; Cat. No. 87050, Lot 20050174). In a separate set, 10 million suspension-adapted CHO DG44 cells were resuspended in 0.5 ml of ProCHO5 serum-free medium with 4 mmol/[…] hypoxanthine and 0.194 g/l thymidine (BioWhittaker (Lonza), Belgium; Cat. No. BE12-[…]; Lot No. 7 MB0040; “ProCHO5” medium; note: “ProCHO5” medium-as used herein-refers to a medium comprising 4 mmol/[…] hypoxanthine and 0.194 g/l thymidine) in a 50-ml filter tube each (TPP AG, Trasadingen, Switzerland; Cat. No. 87050, Lot 20050174). Then 12.5 μg plasmid DNA at a concentration of 1 μg/μl was added in each tube with the following composition 50% (6.25 μg) p-LC (SEQ ID NO: 1) 50% (6.25 μg) p-HC (SEQ ID NO: 3). Plasmid p-LC comprises the genetic information for the production of the light chain of an IgG antibody, plasmid p-HC comprises the genetic information for the production of the heavy chain of an IgG antibody. The particular vector constructs used in the present invention can also be obtained from the inventors. The inventors can be contacted via e-mail at […]. […] In short, Goat anti-human kappa light chain IgG (Biosource) was used for coating the ELISA-plates, and with AP-conjugated goat anti-human gamma chain IgG (Biosource) the synthesized IgG1 was detected. […] Absorption was measured at 405 nm against 490 nm using a microplate reader (SPECTRAmaxTM340; Molecular Devices, Palo Alto, Calif., USA).

Q: Which Batch titer (0.5 mmol/l VPA at day 0) does the source give for `CCCC(CCC)C(=O)O` [VPA, valproic acid] here?
A: The Batch titer was 35.8 mg/L.

Q: What about the “batch titers, direct addition versus slowly increasing concentration” value of the same compound?
A: The value was “statistically not different”.

Q: What about the Batch titer (escalating dosage, 0.125 to 0.5 mmol/l in 0.125 mmol/l increments every other day) of the same compound?
A: Its Batch titer is 37.9 mg/L.
